Laboratory results taken from patent US9340590B2 (priority 2011, dated 2016).
Where two headings read alike, the source gives them in different places. Positions of bridges follow the written chain, without caps; N, C: chain ends. Non-standard residues stand in square brackets, D forms with d. Residues, ends and D or L forms follow the SMILES beside them. Cit = NC(=O)NCCC[C@H](N)C(=O)O

How the values were obtained:
Assay in all cases: cell-based
hNav1.5 = hNav1.5 (Homo sapiens, UniProt Q14524); conditions: IonWorks Quattro, hNav1.5, read-out: IWQ Use Nav1.5
hNav1.5, sequence (Q14524 whole entry, looked up): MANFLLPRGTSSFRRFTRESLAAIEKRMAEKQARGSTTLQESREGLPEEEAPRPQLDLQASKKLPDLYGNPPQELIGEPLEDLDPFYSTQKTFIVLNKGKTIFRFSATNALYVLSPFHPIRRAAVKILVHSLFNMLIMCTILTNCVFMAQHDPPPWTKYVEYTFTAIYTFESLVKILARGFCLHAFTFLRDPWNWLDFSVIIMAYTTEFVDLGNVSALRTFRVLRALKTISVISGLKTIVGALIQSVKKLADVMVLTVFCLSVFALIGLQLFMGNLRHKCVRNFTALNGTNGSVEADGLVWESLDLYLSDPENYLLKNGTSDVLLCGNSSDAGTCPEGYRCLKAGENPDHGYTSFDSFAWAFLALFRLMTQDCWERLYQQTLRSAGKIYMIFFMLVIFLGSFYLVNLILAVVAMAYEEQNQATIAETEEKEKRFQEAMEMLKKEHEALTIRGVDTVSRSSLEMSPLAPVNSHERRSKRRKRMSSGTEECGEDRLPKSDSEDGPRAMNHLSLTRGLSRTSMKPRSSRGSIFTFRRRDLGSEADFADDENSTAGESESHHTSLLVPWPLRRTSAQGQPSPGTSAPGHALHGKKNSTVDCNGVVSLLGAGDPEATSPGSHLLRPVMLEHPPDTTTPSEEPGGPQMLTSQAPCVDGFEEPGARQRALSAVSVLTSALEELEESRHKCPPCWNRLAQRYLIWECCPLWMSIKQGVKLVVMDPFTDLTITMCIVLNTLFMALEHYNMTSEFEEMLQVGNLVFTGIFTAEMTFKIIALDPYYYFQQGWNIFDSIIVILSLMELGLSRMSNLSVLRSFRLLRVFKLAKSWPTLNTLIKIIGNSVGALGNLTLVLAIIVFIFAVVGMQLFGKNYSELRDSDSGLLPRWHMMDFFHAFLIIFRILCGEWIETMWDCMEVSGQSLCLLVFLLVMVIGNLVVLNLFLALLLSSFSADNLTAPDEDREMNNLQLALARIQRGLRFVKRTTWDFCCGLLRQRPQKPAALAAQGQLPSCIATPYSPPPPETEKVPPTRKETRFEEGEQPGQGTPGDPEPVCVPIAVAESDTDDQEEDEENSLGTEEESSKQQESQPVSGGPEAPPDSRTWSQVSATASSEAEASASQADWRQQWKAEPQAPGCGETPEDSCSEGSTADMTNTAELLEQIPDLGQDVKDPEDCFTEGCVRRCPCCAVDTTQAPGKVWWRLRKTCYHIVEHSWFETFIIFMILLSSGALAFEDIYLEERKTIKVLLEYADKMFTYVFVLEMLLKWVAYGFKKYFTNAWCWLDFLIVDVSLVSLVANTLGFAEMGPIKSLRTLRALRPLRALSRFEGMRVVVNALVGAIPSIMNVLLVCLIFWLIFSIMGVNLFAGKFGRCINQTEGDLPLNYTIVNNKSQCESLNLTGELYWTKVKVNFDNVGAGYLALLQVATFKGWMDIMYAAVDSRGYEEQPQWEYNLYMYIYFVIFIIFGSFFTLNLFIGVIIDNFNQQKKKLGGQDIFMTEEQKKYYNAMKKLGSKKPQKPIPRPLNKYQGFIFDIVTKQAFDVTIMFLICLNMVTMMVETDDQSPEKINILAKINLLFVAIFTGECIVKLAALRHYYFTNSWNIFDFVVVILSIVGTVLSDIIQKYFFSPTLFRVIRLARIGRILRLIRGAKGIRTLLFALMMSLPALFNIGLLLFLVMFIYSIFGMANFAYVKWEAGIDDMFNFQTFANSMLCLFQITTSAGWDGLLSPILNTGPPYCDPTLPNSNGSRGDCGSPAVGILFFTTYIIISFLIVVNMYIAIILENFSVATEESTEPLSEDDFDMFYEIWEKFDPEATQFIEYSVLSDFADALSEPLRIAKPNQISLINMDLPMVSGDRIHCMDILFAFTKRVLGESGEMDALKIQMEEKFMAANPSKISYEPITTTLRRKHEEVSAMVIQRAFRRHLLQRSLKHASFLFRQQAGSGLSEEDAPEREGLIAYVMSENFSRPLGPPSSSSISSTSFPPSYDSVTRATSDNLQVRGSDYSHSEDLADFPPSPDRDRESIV

hNav1.3 = hNav1.3 (Homo sapiens, UniProt Q9NY46); conditions: IonWorks Quattro, hNav1.3, read-out: IWQ Use Nav1.3
hNav1.3, sequence (Q9NY46 whole entry, looked up): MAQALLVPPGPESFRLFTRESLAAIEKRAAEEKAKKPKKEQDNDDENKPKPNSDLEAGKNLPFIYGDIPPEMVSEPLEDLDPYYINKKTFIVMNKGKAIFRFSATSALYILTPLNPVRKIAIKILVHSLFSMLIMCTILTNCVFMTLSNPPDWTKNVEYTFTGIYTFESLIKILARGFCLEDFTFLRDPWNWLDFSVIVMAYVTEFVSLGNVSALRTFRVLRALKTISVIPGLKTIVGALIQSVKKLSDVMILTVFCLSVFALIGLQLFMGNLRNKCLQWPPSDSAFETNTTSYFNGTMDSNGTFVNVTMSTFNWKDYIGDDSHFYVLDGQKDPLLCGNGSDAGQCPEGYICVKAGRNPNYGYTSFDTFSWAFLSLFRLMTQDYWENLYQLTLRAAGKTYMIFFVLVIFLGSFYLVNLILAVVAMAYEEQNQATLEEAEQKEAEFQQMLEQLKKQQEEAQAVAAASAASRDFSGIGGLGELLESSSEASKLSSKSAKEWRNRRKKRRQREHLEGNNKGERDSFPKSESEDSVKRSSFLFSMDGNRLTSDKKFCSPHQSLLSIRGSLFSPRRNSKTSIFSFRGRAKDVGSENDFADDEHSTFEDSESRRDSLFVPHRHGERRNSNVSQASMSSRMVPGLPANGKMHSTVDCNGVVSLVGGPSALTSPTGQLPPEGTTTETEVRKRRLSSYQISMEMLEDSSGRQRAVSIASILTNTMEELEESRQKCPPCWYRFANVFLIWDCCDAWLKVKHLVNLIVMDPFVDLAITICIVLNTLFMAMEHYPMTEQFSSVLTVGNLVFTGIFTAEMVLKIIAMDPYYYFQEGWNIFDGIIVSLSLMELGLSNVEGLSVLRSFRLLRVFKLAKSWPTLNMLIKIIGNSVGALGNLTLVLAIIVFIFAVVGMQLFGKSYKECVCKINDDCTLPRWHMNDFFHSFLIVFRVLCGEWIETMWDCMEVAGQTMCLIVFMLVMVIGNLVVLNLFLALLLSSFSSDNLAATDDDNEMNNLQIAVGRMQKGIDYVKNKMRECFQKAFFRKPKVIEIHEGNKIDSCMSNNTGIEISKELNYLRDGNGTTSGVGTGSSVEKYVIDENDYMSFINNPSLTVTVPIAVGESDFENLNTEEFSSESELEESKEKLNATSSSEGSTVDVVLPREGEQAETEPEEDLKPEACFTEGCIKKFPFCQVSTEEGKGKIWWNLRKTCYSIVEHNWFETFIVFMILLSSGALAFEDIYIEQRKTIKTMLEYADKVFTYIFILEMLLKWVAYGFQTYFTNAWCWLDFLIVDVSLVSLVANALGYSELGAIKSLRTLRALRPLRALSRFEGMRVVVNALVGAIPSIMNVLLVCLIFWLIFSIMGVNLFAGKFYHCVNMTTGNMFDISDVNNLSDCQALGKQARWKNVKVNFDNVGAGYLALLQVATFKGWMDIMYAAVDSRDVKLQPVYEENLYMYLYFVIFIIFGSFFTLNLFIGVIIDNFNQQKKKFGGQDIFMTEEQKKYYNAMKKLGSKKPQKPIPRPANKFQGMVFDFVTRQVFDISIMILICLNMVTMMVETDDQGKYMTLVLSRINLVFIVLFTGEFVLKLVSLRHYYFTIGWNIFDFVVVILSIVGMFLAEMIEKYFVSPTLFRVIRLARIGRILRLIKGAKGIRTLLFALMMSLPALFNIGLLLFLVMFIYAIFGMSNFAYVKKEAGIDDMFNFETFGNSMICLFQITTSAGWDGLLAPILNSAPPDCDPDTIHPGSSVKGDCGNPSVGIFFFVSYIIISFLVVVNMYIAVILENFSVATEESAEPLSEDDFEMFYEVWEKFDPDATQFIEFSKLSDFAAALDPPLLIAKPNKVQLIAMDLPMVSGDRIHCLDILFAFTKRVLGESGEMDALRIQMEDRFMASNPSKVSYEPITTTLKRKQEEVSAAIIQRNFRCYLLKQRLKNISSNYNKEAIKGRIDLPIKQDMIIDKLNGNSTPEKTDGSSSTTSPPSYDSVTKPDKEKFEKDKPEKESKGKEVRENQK

hNav1.7 = hNav1.7 (Homo sapiens, UniProt Q15858); format: cell-based; conditions: IonWorks Quattro, hNav1.7, read-out: IWQ Use Nav1.7

Row | SMILES | IC50 (hNav1.5; use-dependent protocol) [µM] | IC50 (hNav1.3; use-dependent protocol) [µM] | IC50 (hNav1.7; use-dependent protocol) [µM] | IC50 (hNav1.5; use-dependent block) [µM] | IC50 (hNav1.3; use-dependent block) [µM] | IC50 (hNav1.7; use-dependent block) [µM]
1 | CC[C@H](C)[C@@H]1NC(=O)[C@@H]2CSSC[C@@H]3NC(=O)[C@H](C(C)C)NC(=O)[C@H](CC(C)C)NC(=O)[C@H](CC(N)=O)NC(=O)[C@@H]4CCCN4C(=O)[C@H](CCCNC(=N)N)NC(=O)[C@H](CSSC[C@H](NC(=O)[C@@H](N)CC(=O)O)C(=O)N[C@@H](CC(C)C)C(=O)NCC(=O)N[C@@H](C(C)C)C(=O)N[C@@H](CCSC)C(=O)N[C@@H](CCCNC(=N)N)C(=O)N[C@@H](CCCCN)C(=O)N2)NC(=O)[C@H](CSSC[C@@H](C(=O)N[C@@H](CCCCN)C(=O)N[C@@H](Cc2ccc(O)cc2)C(=O)N[C@H](C(=O)N[C@@H](Cc2ccccc2)C(N)=O)C(C)C)NC(=O)[C@H](Cc2c[nH]c4ccccc24)NC(=O)[C@H](CCCCN)NC(=O)[C@H](Cc2c[nH]cn2)NC(=O)[C@H]([C@@H](C)O)NC(=O)[C@H](CCCNC(N)=O)NC(=O)[C@H](CO)NC3=O)NC(=O)[C@H](CCCCN)NC(=O)[C@H](CC(=O)O)NC(=O)[C@H](CC(N)=O)NC(=O)[C@H](CC(=O)O)NC(=O)[C@@H]2CCCN2C1=O [compound 713] (H-DCLGVMRKCIPDNDKCCRPNLVCS[Cit]THKWCKYVF-NH2; disulfide 2-17, 9-23, 16-30) | 36 | 4.2 | 0.83 | – | – | –
2 | CSCC[C@@H]1NC(=O)[C@H]([C@@H](C)O)NC(=O)CNC(=O)[C@H](CC(C)C)NC(=O)[C@@H](NC(=O)[C@@H](N)CC(=O)O)CSSC[C@@H]2NC(=O)[C@@H]3CSSC[C@@H](C(=O)N[C@@H](CCCCN)C(=O)N[C@@H](Cc4ccc(O)cc4)C(=O)N[C@H](C(=O)N[C@@H](Cc4ccccc4)C(N)=O)C(C)C)NC(=O)[C@H](Cc4c[nH]c5ccccc45)NC(=O)[C@H](CCCCN)NC(=O)[C@H](Cc4c[nH]cn4)NC(=O)[C@H]([C@@H](C)O)NC(=O)[C@H](CCCNC(=N)N)NC(=O)[C@H](CO)NC(=O)[C@H](CSSC[C@H](NC(=O)[C@H](CCCCN)NC(=O)[C@H](CCCNC(=N)N)NC1=O)C(=O)N[C@@H](CC(=O)O)C(=O)N1CCC[C@H]1C(=O)N[C@@H](CC(=O)O)C(=O)N[C@@H](CC(N)=O)C(=O)N[C@@H](CC(=O)O)C(=O)N[C@@H](CCCCN)C(=O)N3)NC(=O)[C@H](C(C)C)NC(=O)[C@H](CC(C)C)NC(=O)[C@H](CC(N)=O)NC(=O)[C@@H]1CCCN1C(=O)[C@H](CCCNC(=N)N)NC2=O [compound 714] (H-DCLGTMRKCDPDNDKCCRPNLVCSRTHKWCKYVF-NH2; disulfide 2-17, 9-23, 16-30) | 48 | > 5 | 1.6 | – | – | –
3 | CC[C@H](C)[C@@H]1NC(=O)[C@@H]2CSSC[C@@H]3NC(=O)[C@H](C(C)C)NC(=O)[C@H](CC(C)C)NC(=O)[C@H](CC(N)=O)NC(=O)[C@@H]4CCCN4C(=O)[C@H](CCCNC(=N)N)NC(=O)[C@H](CSSC[C@H](NC(=O)[C@@H](N)CC(=O)O)C(=O)N[C@@H](CC(C)C)C(=O)NCC(=O)N[C@@H](C)C(=O)N[C@@H](CCSC)C(=O)N[C@@H](CCCNC(=N)N)C(=O)N[C@@H](CCCCN)C(=O)N2)NC(=O)[C@H](CSSC[C@@H](C(=O)N[C@@H](CCCCN)C(=O)N[C@@H](Cc2ccc(O)cc2)C(=O)N[C@H](C(=O)N[C@@H](Cc2ccccc2)C(N)=O)C(C)C)NC(=O)[C@H](Cc2c[nH]c4ccccc24)NC(=O)CNC(=O)[C@H](Cc2c[nH]cn2)NC(=O)[C@H]([C@@H](C)O)NC(=O)[C@H](CCCNC(=N)N)NC(=O)[C@H](CO)NC3=O)NC(=O)[C@H](CCCCN)NC(=O)[C@H](CC(=O)O)NC(=O)[C@H](CC(N)=O)NC(=O)[C@H](CC(=O)O)NC(=O)[C@@H]2CCCN2C1=O [compound 715] (H-DCLGAMRKCIPDNDKCCRPNLVCSRTHGWCKYVF-NH2; disulfide 2-17, 9-23, 16-30) | – | – | – | > 50 | > 5 | 1
